In paper PMC7316994, “In Vitro Pharmacological Profile of a New Small Molecule Bradykinin B2 Receptor Antagonist” (Frontiers in Pharmacology, 2020):

Columns and labels:
[1] = molecular target: T1, myc-tagged human B2 receptor (Homo sapiens, UniProt P30411); assay: antibody internalization assay, HEK 293a cells; format: cell-based; conditions: BK 100 nM; antagonist 1 nM to 1 μM, 15 min before BK
T1 construct: expressed in transfected cells
Experimental: B2 receptor-mediated transport of immune complexes constructed at the cell surface was previously reported ([Bawolak et al., 2011]). Intact HEK 293a cells stably expressing the N-terminally myc-tagged B2 receptor construction (human sequence, [Charest-Morin et al., 2015]) were treated with the monoclonal anti-myc antibody (clone 4A6) conjugated with AlexaFluor-488 (Millipore, dilution 1:500) added to the culture medium. Cells were further incubated at 37°C. Without rinsing, a selected antagonist or their DMSO vehicle was added 5 min later, and BK (100 nM) or its saline vehicle 15 min later. After an additional 30 min incubation period at 37°C, cells were rinsed 3 times with Hank's balanced salt solution (Multicell Wisent, St. Bruno, Canada) and photographed in transmission and epifluorescence using an Olympus BX51 microscope coupled to a CoolSnap HQ digital camera (filters for AlexaFluor 488: excitation 460–500 nm, emission 510–560 nm).

Monoamino-oxidase MAO-A = molecular target: T2, Monoamino-oxidase MAO-A (Rattus norvegicus, UniProt P21396); assay: radioligand binding (Table S2); conditions: [3H] Ro 41-1049, Rat cerebral cortex
T2 construct: Rat cerebral cortex; from tissue; host or cells: rat cerebral cortex
T2 sequence (P21396 whole entry): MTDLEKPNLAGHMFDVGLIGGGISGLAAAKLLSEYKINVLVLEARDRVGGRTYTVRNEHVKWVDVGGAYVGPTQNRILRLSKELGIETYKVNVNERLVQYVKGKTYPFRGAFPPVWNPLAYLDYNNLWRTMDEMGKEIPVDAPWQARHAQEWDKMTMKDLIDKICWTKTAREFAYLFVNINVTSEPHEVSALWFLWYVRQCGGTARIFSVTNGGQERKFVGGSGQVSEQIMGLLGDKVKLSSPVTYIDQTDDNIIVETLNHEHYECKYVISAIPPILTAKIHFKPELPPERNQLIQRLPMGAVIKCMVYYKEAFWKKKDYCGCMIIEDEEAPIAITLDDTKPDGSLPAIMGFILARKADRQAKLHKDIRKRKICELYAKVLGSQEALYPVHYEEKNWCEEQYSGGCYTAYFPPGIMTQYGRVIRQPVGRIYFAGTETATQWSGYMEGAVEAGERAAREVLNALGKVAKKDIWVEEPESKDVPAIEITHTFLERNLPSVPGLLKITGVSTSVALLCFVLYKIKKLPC

Neurokinin NK3 = molecular target: T3, Neurokinin NK3 (Homo sapiens, UniProt P29371); assay: radioligand binding (Table S2); conditions: [3H] SR 142801, Human recombinant CHO cells
T3 construct: host or cells: CHO cells
T3 sequence (P29371 1-465): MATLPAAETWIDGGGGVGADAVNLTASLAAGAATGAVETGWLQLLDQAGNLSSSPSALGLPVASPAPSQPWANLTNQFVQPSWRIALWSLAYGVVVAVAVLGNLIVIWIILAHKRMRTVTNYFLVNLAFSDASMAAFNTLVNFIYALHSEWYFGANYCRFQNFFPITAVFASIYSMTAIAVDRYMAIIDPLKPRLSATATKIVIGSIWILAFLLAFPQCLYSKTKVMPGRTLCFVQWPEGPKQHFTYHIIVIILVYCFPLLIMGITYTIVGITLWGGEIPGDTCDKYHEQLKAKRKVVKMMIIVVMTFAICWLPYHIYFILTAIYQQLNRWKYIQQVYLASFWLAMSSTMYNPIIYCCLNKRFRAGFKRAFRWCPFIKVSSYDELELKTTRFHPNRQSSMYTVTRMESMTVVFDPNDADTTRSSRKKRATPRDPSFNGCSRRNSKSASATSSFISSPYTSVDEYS

[2] = molecular target: T4, Vasoactive intestinal peptide VPAC1 (VIP1) (Homo sapiens, UniProt P32241); assay: radioligand binding (Table S2); conditions: [125I] VIP, Human recombinant CHO cells
T4 construct: host or cells: CHO cells
T4 sequence (P32241 31-457): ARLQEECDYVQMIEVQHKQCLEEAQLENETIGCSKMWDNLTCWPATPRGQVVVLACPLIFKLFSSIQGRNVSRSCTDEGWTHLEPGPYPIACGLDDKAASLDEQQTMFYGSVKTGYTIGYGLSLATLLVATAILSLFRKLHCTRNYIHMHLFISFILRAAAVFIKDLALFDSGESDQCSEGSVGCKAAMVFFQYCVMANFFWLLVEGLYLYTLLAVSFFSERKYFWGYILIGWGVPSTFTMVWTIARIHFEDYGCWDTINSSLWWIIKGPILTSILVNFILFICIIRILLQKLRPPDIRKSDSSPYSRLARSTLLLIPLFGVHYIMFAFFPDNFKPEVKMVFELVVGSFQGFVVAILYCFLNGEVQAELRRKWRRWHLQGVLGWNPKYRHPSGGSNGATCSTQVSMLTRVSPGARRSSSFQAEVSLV

in vitro = conditions: male, Wistar, rat, microsomes, pH 7.4
[3] = molecular target: Gamma-aminobutyric acid GABAB1B (Homo sapiens, UniProt Q9UBS5); assay: radioligand binding (Table S2); conditions: read-out: % Inhibition @ 10 µM
Sequence of Gamma-aminobutyric acid GABAB1B (Q9UBS5 1-844 isoform Q9UBS5-2): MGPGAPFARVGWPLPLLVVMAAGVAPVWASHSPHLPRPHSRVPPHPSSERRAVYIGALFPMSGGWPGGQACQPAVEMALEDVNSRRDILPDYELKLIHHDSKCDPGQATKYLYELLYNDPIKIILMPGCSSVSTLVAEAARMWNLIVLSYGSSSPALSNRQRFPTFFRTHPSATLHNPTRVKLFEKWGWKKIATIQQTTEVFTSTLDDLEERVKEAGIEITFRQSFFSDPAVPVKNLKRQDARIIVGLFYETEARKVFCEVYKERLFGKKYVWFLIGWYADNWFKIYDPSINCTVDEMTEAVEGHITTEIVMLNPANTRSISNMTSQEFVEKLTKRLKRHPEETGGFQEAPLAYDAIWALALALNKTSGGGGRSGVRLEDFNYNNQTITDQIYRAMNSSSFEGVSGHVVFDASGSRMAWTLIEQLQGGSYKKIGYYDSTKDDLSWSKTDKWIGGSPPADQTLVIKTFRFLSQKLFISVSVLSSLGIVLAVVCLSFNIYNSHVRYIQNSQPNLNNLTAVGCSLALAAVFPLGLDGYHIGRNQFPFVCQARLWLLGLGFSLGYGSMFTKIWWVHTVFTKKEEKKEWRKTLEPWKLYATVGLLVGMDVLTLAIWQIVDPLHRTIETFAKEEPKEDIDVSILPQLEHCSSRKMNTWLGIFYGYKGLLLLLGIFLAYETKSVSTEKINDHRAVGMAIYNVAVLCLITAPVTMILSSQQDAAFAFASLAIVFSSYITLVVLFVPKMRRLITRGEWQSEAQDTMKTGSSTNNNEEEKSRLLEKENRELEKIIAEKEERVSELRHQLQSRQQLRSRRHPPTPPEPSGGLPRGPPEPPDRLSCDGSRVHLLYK

T1 sequence (P30411 whole entry): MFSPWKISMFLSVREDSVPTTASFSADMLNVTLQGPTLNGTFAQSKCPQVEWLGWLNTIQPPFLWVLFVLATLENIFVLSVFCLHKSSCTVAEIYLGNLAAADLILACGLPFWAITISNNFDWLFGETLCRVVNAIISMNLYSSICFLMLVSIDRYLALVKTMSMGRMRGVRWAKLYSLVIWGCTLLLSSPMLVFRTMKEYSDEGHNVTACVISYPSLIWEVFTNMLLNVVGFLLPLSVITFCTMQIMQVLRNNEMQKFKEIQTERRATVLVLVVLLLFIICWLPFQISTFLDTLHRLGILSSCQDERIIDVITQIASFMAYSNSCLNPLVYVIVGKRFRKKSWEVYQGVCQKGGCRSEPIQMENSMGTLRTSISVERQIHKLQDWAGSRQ

For `Cc1cc(-c2ncnn2C)c2cccc(OCc3c(Cl)cc(F)cc3[C@H](C)NC(=O)COC(F)F)c2n1` [Compound 3, (S)-N-(1-(3-chloro-5-fluoro-2-((2-methyl-4-(1-methyl-1H-1,2,4-triazol-5-yl)quinolin-8-yloxy)methyl)phenyl)ethyl)-2-(difluoromethoxy)acetamide], the “concentration with clear efficacy in inhibiting BK-induced endocytosis” value [1] was ≥ 100 nM, the inhibition at 10 µM (Monoamino-oxidase MAO-A) was -1.3% and the inhibition at 10 µM (Neurokinin NK3) was 6.1%. For the same compound, the inhibition at 10 µM [2] was 0.8%, the microsomal CLint at 1 µM (in vitro) was 27.9 µL/min/mg and the inhibition at 10 µM [3] was 9%.
